Experimental data: the NIST ThermoML archive (doi:10.1021/acs.jced.7b00121)
Numbers after ± are expanded uncertainties.

Conditions: 101.33 kPa, Liquid; for viscosity: Falling or rolling sphere viscometry; for mass density: Vibrating tube method

## CCCCCCCCC [nonane]
288.15 K
  viscosity: 0.763 ± 0.077 mPa·s
  mass density: 721.64 ± 1.4 kg/m3
293.15 K
  viscosity: 0.713 ± 0.072 mPa·s
  mass density: 717.78 ± 1.4 kg/m3
298.15 K
  viscosity: 0.669 ± 0.067 mPa·s
  mass density: 713.91 ± 1.4 kg/m3
303.15 K
  viscosity: 0.63 ± 0.063 mPa·s
  mass density: 710.03 ± 1.4 kg/m3
308.15 K
  viscosity: 0.594 ± 0.06 mPa·s
  mass density: 706.12 ± 1.4 kg/m3
313.15 K
  viscosity: 0.564 ± 0.057 mPa·s
  mass density: 702.2 ± 1.4 kg/m3
318.15 K
  viscosity: 0.535 ± 0.054 mPa·s
  mass density: 698.26 ± 1.4 kg/m3
323.15 K
  viscosity: 0.509 ± 0.051 mPa·s
  mass density: 694.3 ± 1.4 kg/m3
328.15 K
  viscosity: 0.485 ± 0.049 mPa·s
  mass density: 690.33 ± 1.4 kg/m3
333.15 K
  viscosity: 0.462 ± 0.046 mPa·s
  mass density: 686.34 ± 1.4 kg/m3
338.15 K
  viscosity: 0.443 ± 0.044 mPa·s
  mass density: 682.31 ± 1.4 kg/m3
343.15 K
  viscosity: 0.425 ± 0.043 mPa·s
  mass density: 678.26 ± 1.4 kg/m3

## CCCCCCC [heptane]
288.15 K
  viscosity: 0.432 ± 0.043 mPa·s
  mass density: 688.13 ± 1.4 kg/m3
293.15 K
  viscosity: 0.412 ± 0.041 mPa·s
  mass density: 683.93 ± 1.4 kg/m3
298.15 K
  viscosity: 0.393 ± 0.039 mPa·s
  mass density: 679.71 ± 1.4 kg/m3
303.15 K
  viscosity: 0.377 ± 0.038 mPa·s
  mass density: 675.47 ± 1.4 kg/m3
308.15 K
  viscosity: 0.362 ± 0.036 mPa·s
  mass density: 671.2 ± 1.4 kg/m3
313.15 K
  viscosity: 0.348 ± 0.035 mPa·s
  mass density: 666.89 ± 1.4 kg/m3
318.15 K
  viscosity: 0.335 ± 0.034 mPa·s
  mass density: 662.55 ± 1.4 kg/m3
323.15 K
  viscosity: 0.324 ± 0.033 mPa·s
  mass density: 658.19 ± 1.3 kg/m3
328.15 K
  viscosity: 0.312 ± 0.031 mPa·s
  mass density: 653.79 ± 1.3 kg/m3
333.15 K
  viscosity: 0.302 ± 0.03 mPa·s
  mass density: 649.33 ± 1.3 kg/m3
338.15 K
  viscosity: 0.293 ± 0.029 mPa·s
  mass density: 644.84 ± 1.3 kg/m3
343.15 K
  viscosity: 0.284 ± 0.029 mPa·s
  mass density: 640.29 ± 1.3 kg/m3

## CCCCCCCC [octane]
288.15 K
  viscosity: 0.585 ± 0.059 mPa·s
  mass density: 706.54 ± 1.4 kg/m3
293.15 K
  viscosity: 0.552 ± 0.055 mPa·s
  mass density: 702.53 ± 1.4 kg/m3
298.15 K
  viscosity: 0.523 ± 0.052 mPa·s
  mass density: 698.51 ± 1.4 kg/m3
303.15 K
  viscosity: 0.496 ± 0.05 mPa·s
  mass density: 694.48 ± 1.4 kg/m3
308.15 K
  viscosity: 0.473 ± 0.047 mPa·s
  mass density: 690.42 ± 1.4 kg/m3
313.15 K
  viscosity: 0.45 ± 0.045 mPa·s
  mass density: 686.34 ± 1.4 kg/m3
318.15 K
  viscosity: 0.431 ± 0.043 mPa·s
  mass density: 682.24 ± 1.4 kg/m3
323.15 K
  viscosity: 0.412 ± 0.041 mPa·s
  mass density: 678.11 ± 1.4 kg/m3
328.15 K
  viscosity: 0.395 ± 0.04 mPa·s
  mass density: 673.95 ± 1.4 kg/m3
333.15 K
  viscosity: 0.379 ± 0.038 mPa·s
  mass density: 669.77 ± 1.4 kg/m3
338.15 K
  viscosity: 0.365 ± 0.037 mPa·s
  mass density: 665.55 ± 1.4 kg/m3
343.15 K
  viscosity: 0.352 ± 0.035 mPa·s
  mass density: 661.28 ± 1.3 kg/m3

## CCCCCCCCCC [decane]
288.15 K
  viscosity: 0.987 ± 0.099 mPa·s
  mass density: 733.57 ± 1.5 kg/m3
293.15 K
  viscosity: 0.915 ± 0.092 mPa·s
  mass density: 729.81 ± 1.5 kg/m3
298.15 K
  viscosity: 0.852 ± 0.085 mPa·s
  mass density: 726.05 ± 1.5 kg/m3
303.15 K
  viscosity: 0.797 ± 0.08 mPa·s
  mass density: 722.28 ± 1.4 kg/m3
308.15 K
  viscosity: 0.747 ± 0.075 mPa·s
  mass density: 718.49 ± 1.4 kg/m3
313.15 K
  viscosity: 0.703 ± 0.07 mPa·s
  mass density: 714.69 ± 1.4 kg/m3
318.15 K
  viscosity: 0.663 ± 0.066 mPa·s
  mass density: 710.88 ± 1.4 kg/m3
323.15 K
  viscosity: 0.627 ± 0.063 mPa·s
  mass density: 707.06 ± 1.4 kg/m3
328.15 K
  viscosity: 0.593 ± 0.059 mPa·s
  mass density: 703.21 ± 1.4 kg/m3
333.15 K
  viscosity: 0.563 ± 0.056 mPa·s
  mass density: 699.36 ± 1.4 kg/m3
338.15 K
  viscosity: 0.536 ± 0.054 mPa·s
  mass density: 695.48 ± 1.4 kg/m3
343.15 K
  viscosity: 0.512 ± 0.051 mPa·s
  mass density: 691.59 ± 1.4 kg/m3
